Assay results published in PubChem BioAssay (NCI).
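Values below derive from 48-hour exposures of cells grown in 96-well plates, with endpoints linearly interpolated between the two concentrations bracketing the appropriate inhibition level. Abbreviation: GI50, concentration required for 50% inhibition of growth. TGI is the concentration that stops growth completely.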

Columns and labels:
Experiment in all cases: NCI anticancer screen, dose series, 48 h
HCT-15 colon = tested on: HCT-15 colon
SF-268 CNS = tested on: SF-268 CNS
UACC-257 melanoma = tested on: UACC-257 melanoma
SK-MEL-2 melanoma = tested on: SK-MEL-2 melanoma
A498 renal = tested on: A498 renal
SW-620 colon = tested on: SW-620 colon
UACC-62 melanoma = tested on: UACC-62 melanoma
PC-3 prostate = tested on: PC-3 prostate
T-47D breast = tested on: T-47D breast
TK-10 renal = tested on: TK-10 renal

| SMILES | GI50 (HCT-15 colon) | TGI (HCT-15 colon) | GI50 (SF-268 CNS) | TGI (SF-268 CNS) | GI50 (UACC-257 melanoma) | TGI (UACC-257 melanoma) | GI50 (SK-MEL-2 melanoma) | TGI (SK-MEL-2 melanoma) | GI50 (A498 renal) | TGI (A498 renal) | GI50 (SW-620 colon) | TGI (SW-620 colon) | GI50 (UACC-62 melanoma) | TGI (UACC-62 melanoma) | GI50 (PC-3 prostate) | TGI (PC-3 prostate) | GI50 (T-47D breast) | TGI (T-47D breast) | GI50 (TK-10 renal) | TGI (TK-10 renal) |
| --- | --- | --- | --- | --- | --- | --- | --- | --- | --- | --- | --- | --- | --- | --- | --- | --- | --- | --- | --- | --- |
| COc1cccc(-c2nn(-c3ccccc3)cc2-c2ccnc(NCCNS(=O)(=O)c3ccc(C(F)(F)F)cc3)c2)c1 | 3.04 µM | > 100 µM | 3.54 µM | > 100 µM | 3.14 µM | 15 µM | 2.42 µM | 6.47 µM | 1.66 µM | 6.5 µM | 4.16 µM | > 100 µM | 3.22 µM | 35 µM | 2.86 µM | 26.7 µM | 2.36 µM | 7.55 µM | 2.39 µM | 9.88 µM |
| C[C@H]1CCC/C=C/[C@@H]2C[C@H](O)C[C@H]2[C@H](O)[C@H](S(=O)c2ccc(O)cc2)CC(=O)O1 (stereo not given in full) | 0.0443 µM | 1.69 µM |  | > 100 µM | 0.0222 µM |  | 0.0485 µM | 0.504 µM | 0.0307 µM | 0.0716 µM | 0.0506 µM | > 100 µM | 0.0349 µM | > 100 µM | 0.0343 µM |  | 0.2 µM | 0.67 µM | 0.0392 µM | 2.18 µM |
| CC1(C)SC2C(C(=O)O)N=C(Cc3ccccc3)N2C1C(=O)O (stereo not given) |  | > 100 µM |  | 98.1 µM |  | 49.2 µM |  | > 100 µM |  | > 100 µM |  | > 100 µM |  | > 100 µM |  | > 100 µM |  | 73.7 µM |  | 40.5 µM |
| O=S(=O)(NCCNc1cc(-c2cn(-c3ccccc3)nc2-c2cccc(O)c2)ccn1)c1ccc(C(F)(F)F)cc1 | 2.34 µM | 11 µM | 3.42 µM | 17.3 µM | 4.79 µM | 18.4 µM | 2.36 µM | 7.22 µM | 3.05 µM | 14.5 µM | 3.55 µM | 12.9 µM | 1.78 µM | 3.98 µM | 2.47 µM | 10.9 µM | 1.84 µM | 6.73 µM | 2.81 µM | 18.7 µM |
| COc1cc2c(c(OC)c1OC)-c1ccc([O-])c(=O)cc1[C@@H](NC(C)=O)CC2.COc1cc2c(c(OC)c1OC)-c1ccc([O-])c(=O)cc1[C@@H](NC(C)=O)CC2.[Cu+2] | 3.73 µM | > 100 µM | 3.89 µM | 22.7 µM | 12.5 µM | > 100 µM | 3.59 µM | > 100 µM | 2.41 µM | 8.53 µM | 3.44 µM | > 100 µM | 1.86 µM | 11.4 µM | 3.63 µM | > 100 µM | 7.95 µM | > 100 µM | 9.55 µM | > 100 µM |
| CCCCCCCC1c2cc3[nH]c(cc4nc(cc5[nH]c(cc(n2)[C@@]1(C)CC(=O)N(C)C)c(C)c5CCC(=O)O)C(CCC(=O)O)=C4C)cc3C (stereo not given in full) |  | 39.5 µM |  | 42.9 µM |  | 35.2 µM |  | 34 µM |  | 87.2 µM |  | > 100 µM |  | 33.1 µM |  | 64 µM |  | > 100 µM |  | 79.3 µM |
| CCC1CCc2nc3sc(C(=O)Nc4ccccc4F)c(N)c3cc2C1 (stereo not given) | 0.401 µM | > 100 µM | 16.8 µM | > 100 µM | 0.934 µM | > 100 µM | 10.5 µM | > 100 µM | 0.0575 µM | 0.689 µM | 0.819 µM | > 100 µM | 0.523 µM | > 100 µM | 18.8 µM | > 100 µM | > 100 µM | > 100 µM |  |  |
| CCCCCCCCN(CCCCCCCC)C(=N)c1ccnc2ccccc12 | 0.348 µM | 1.33 µM | 1.31 µM | 2.89 µM | 1.75 µM | 3.35 µM | 1.78 µM | 3.35 µM | 1.41 µM | 2.85 µM |  |  | 1.25 µM | 2.65 µM | 1.16 µM | 2.52 µM | 1.24 µM | 2.93 µM | 1.44 µM | 2.83 µM |
| C#C[C@@]1(O)[C@@H](CO)O[C@@H](n2cc(Cl)c3c(N)ncnc32)[C@@H]1O | 0.143 µM | > 100 µM | 0.333 µM | 21.2 µM | 0.347 µM | > 79.9 µM | 0.146 µM | 0.481 µM | 0.274 µM | 0.659 µM | 0.0709 µM |  |  |  | 0.191 µM | 4 µM | 0.0573 µM | 0.489 µM | 0.317 µM | 1.24 µM |
| O=C(O)C(=O)Cc1ccc2c(c1)OCO2 |  | > 100 µM |  |  |  | > 100 µM |  | > 100 µM |  | > 100 µM |  | > 100 µM |  | > 100 µM |  | > 100 µM |  | > 100 µM |  | > 100 µM |
| CC(C)(Cl)CCC1=C(Cl)C(=O)c2ccccc2C1=O | 1.58 µM | 3.05 µM | 3.07 µM | 11.3 µM | 1.67 µM | 3.2 µM | 2.43 µM | 4.97 µM | 1.85 µM | 12 µM | 1.74 µM | 3.63 µM |  |  | 2.27 µM | 8.07 µM | 1.97 µM | 5.52 µM |  |  |
